Here are results for nine molecules from the SangsterLogP compilation.

The data set is described as follows: method code SF-HPLC, from PMID: 1388632. The settings on record: pH 7.4.
One may read the logD as lipophilicity at a set pH, counting ionised and neutral species. The molecule `CCCC(=O)OCc1c2c(n3c1C(OC(=O)CCC)CC3)C(=O)C(C)=C(C(C)=O)C2=O` (centres undefined) yielded a logD of 4.

For the molecule `CC(=O)C1=CC(=O)c2c(c(CO)c3n2CCC3O)C1=O` (centres undefined), the logD was -0.09. The result for `CC(=O)OCc1c2c(n3c1C(O)CCC3)C(=O)C=C(C(C)=O)C2=O` (centres undefined) reads 0.89; that for `CC(=O)OCc1c2c(n3c1CCC3)C(=O)C(C)=C(C(C)=O)C2=O`, 2.81; that for `CCNC(=O)OCc1c2c(n3c1C(O)CC3)C(=O)C(C)=C(OC)C2=O` (centres undefined), 1.83.

For `CC(=O)OCc1c2c(n3c1C(OC(C)=O)CC3)C(=O)C=C(C(C)=O)C2=O` (centres undefined), the logD is 1.15. The result for `CC(=O)C1=CC(=O)c2c(c(CO)c3n2CCCC3O)C1=O` (centres undefined) reads 0.37; that for `CC(=O)OCc1c2c(n3c1C(OC(C)=O)CC3)C(=O)C(C)=C(N1CC1)C2=O` (centres undefined), 1.75; that for `CC(=O)C1=C(C)C(=O)c2c(c(CO)c3n2CCC3O)C1=O` (centres undefined), 1.14.
